Patent US11684597B2, “Administration of tailored feedstock to increase nitro-containing amphenicol antibiotic susceptibility” (U.S. Army Research Laboratory, priority 2019, dated 2023)

System: Clostridium acetobutylicum strain ATCC 824
Experiment: antibiotic sensitivity test (MIC, OD600 in 96-well plate, anaerobic)
Format: cell-based
Settings: for MIC (final concentration of chloramphenicol): after 24 h of growth
Experimental: Bacterial culture conditions and strains have been previously published. All strains and cultures were maintained or grown in an atmosphere of 5.0% H2, 5.0% CO2, and 90.0% N2. Clostridium acetobutylicum strain ATCC 824 was obtained from ATCC and cultured using company protocol at 37° C. into Clostridial growth medium or CGM containing 0.75 g KH2PO4, 0.75 g K2HPO4, 1.0 g NaCl, 0.017 g MnSO4.5H2O, 0.70 g MgSO4.7H2O, 0.01 g FeSO4.7H2O, 2.0 g 1-asparagine, 5.0 g yeast extract, 2.0 g (NH4)2SO4, and 0.5% final concentration of desired carbohydrate—D-glucose, D-galacturonic acid, D-gluconic acid—at pH 6.5. Active cultures from initial growth stock were added to potato glucose medium to be maintained and stored as a spore solution. Potato glucose medium or PGM contains per liter of H2O—150 g grated fresh potato, 10 g D-glucose, 0.5 g (NH4)SO4, and 3 g CaCO3. The medium was boiled for 1 hour and strained through gauze before sterilization and use for culture. Spore solution was activated for culturing through a heat shock at 80° C. for 9 minutes. Shocked spore solution was added to CGM containing the feed stock of choice and grown to late log of 0.8 at optical density of 600 nm (OD600) at 37° C. Theses cultures were then used to perform antibiotic sensitivity experiments.
The protocol for antibiotic sensitivity test was performed as follows in anaerobic conditions: 200 μL of CGM medium containing either 0.5% D-galacturonate or D-glucose was aliquoted into a sterile Costar® 96-well polystyrene flat bottom plate in triplicate per test condition. Chloroamphenicol was dissolved in ethanol at different concentrations. Each chloroamphenicol concentration was added to each well in triplicate and considered a test condition. Test conditions included addition of 1 μL of ethanol, 1 of sterile water, 1 μL 0.1 mg mL^−1, 1 μL 0.25 mg mL^−1, 1 μL 0.5 mg mL^−1, 1 μL 1 mg mL^−1, 1 μL 2.5 mg mL^−1, 1 μL 5 mg mL^−1, 1 μL 10 mg mL^−1, 1 μL 20 mg mL^−1, and 1 μL 10 mg mL^−1. […] The optical density of the cultures in the wells were measured at 600 nm via a commercially available plate reader. […]

With O=C(N[C@H](CO)[C@H](O)c1ccc([N+](=O)[O-])cc1)C(Cl)Cl [chloramphenicol] the “MIC (final concentration of chloramphenicol)” value (C. acetobutylicum grown in CGM with 0.5% D-galacturonate (galacturonic acid) as feedstock) was 2.4 µg/mL, the “MIC (final concentration of chloramphenicol)” value (C. acetobutylicum grown in CGM with 0.5% D-glucose as feedstock) was 23.7 µg/mL and the “increase of antibiotic susceptibility with oxidized feed stock compared to glucose as feed stock” value (C. acetobutylicum, in vitro, galacturonate vs glucose) was 10 fold.
